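A five-concentration, 48-hour dose response in 96-well plates underlies each endpoint, interpolated linearly between surrounding concentrations. TGI: total growth inhibition.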
Tests used:
Test in all cases: DTP human tumour cell line panel, 48 h
786-0 renal = tested on: 786-0 renal
A498 renal = tested on: A498 renal
A549 NSCLC = tested on: A549 NSCLC
ACHN renal = tested on: ACHN renal
COLO 205 colon = tested on: COLO 205 colon
DLD-1 colon = tested on: DLD-1 colon
DMS 114 small cell lung = tested on: DMS 114 small cell lung
DMS 273 small cell lung = tested on: DMS 273 small cell lung
EKVX NSCLC = tested on: EKVX NSCLC
HCC-2998 colon = tested on: HCC-2998 colon
HCT-116 colon = tested on: HCT-116 colon
HCT-15 colon = tested on: HCT-15 colon
HL-60(TB) leukemia = tested on: HL-60(TB) leukemia
HOP-18 NSCLC = tested on: HOP-18 NSCLC
HOP-62 NSCLC = tested on: HOP-62 NSCLC
HOP-92 NSCLC = tested on: HOP-92 NSCLC
HT29 colon = tested on: HT29 colon
IGROV1 ovarian = tested on: IGROV1 ovarian
K-562 leukemia = tested on: K-562 leukemia
KM20L2 colon = tested on: KM20L2 colon
LOX IMVI melanoma = tested on: LOX IMVI melanoma
M14 melanoma = tested on: M14 melanoma
MALME-3M melanoma = tested on: MALME-3M melanoma
MOLT-4 leukemia = tested on: MOLT-4 leukemia
NCI-H226 lung = tested on: NCI-H226 lung
NCI-H23 lung = tested on: NCI-H23 lung
NCI-H460 lung = tested on: NCI-H460 lung
OVCAR-3 ovarian = tested on: OVCAR-3 ovarian
OVCAR-4 ovarian = tested on: OVCAR-4 ovarian
OVCAR-8 ovarian = tested on: OVCAR-8 ovarian
RPMI-8226 leukemia = tested on: RPMI-8226 leukemia
RXF 393 renal = tested on: RXF 393 renal
SF-295 CNS = tested on: SF-295 CNS
SF-539 CNS = tested on: SF-539 CNS
SK-MEL-28 melanoma = tested on: SK-MEL-28 melanoma
SK-MEL-5 melanoma = tested on: SK-MEL-5 melanoma
SK-OV-3 ovarian = tested on: SK-OV-3 ovarian
SN12C renal = tested on: SN12C renal
SNB-19 CNS = tested on: SNB-19 CNS
SNB-75 CNS = tested on: SNB-75 CNS
SR leukemia = tested on: SR leukemia
SW-620 colon = tested on: SW-620 colon
TK-10 renal = tested on: TK-10 renal
U251 CNS = tested on: U251 CNS
UACC-257 melanoma = tested on: UACC-257 melanoma
UACC-62 melanoma = tested on: UACC-62 melanoma
UO-31 renal = tested on: UO-31 renal
XF 498 CNS = tested on: XF 498 CNS
CAKI-1 renal = tested on: CAKI-1 renal
CCRF-CEM leukemia = tested on: CCRF-CEM leukemia
LXFL 529 NSCLC = tested on: LXFL 529 NSCLC
M19-MEL melanoma = tested on: M19-MEL melanoma
NCI-H522 lung = tested on: NCI-H522 lung
OVCAR-5 ovarian = tested on: OVCAR-5 ovarian
SF-268 CNS = tested on: SF-268 CNS
SK-MEL-2 melanoma = tested on: SK-MEL-2 melanoma
SNB-78 CNS = tested on: SNB-78 CNS
KM12 colon = tested on: KM12 colon

Measured: TGI

COC(=O)C12CCC(CC1=O)C2(C)C (configuration not stated)
> 100 µM: 786-0 renal | A498 renal | A549 NSCLC | ACHN renal | COLO 205 colon | DLD-1 colon | DMS 114 small cell lung | DMS 273 small cell lung | EKVX NSCLC | HCC-2998 colon | HCT-116 colon | HCT-15 colon | HL-60(TB) leukemia | HOP-18 NSCLC | HOP-62 NSCLC | HOP-92 NSCLC | HT29 colon | IGROV1 ovarian | K-562 leukemia | KM20L2 colon | LOX IMVI melanoma | M14 melanoma | MALME-3M melanoma | MOLT-4 leukemia | NCI-H226 lung | NCI-H23 lung | NCI-H460 lung | OVCAR-3 ovarian | OVCAR-4 ovarian | OVCAR-8 ovarian | RPMI-8226 leukemia | RXF 393 renal | SF-295 CNS | SF-539 CNS | SK-MEL-28 melanoma | SK-MEL-5 melanoma | SK-OV-3 ovarian | SN12C renal | SNB-19 CNS | SNB-75 CNS | SR leukemia | SW-620 colon | TK-10 renal | U251 CNS | UACC-257 melanoma | UACC-62 melanoma | UO-31 renal | XF 498 CNS

Oc1ccccc1-c1cnnc(-c2ccccc2O)c1
51.2 µM: RPMI-8226 leukemia
66.5 µM: MOLT-4 leukemia
73.9 µM: NCI-H226 lung
41.7 µM: COLO 205 colon
44.6 µM: OVCAR-3 ovarian
88.3 µM: SK-MEL-28 melanoma
38.3 µM: DMS 114 small cell lung
32.3 µM: XF 498 CNS
34 µM: UACC-62 melanoma
41 µM: LOX IMVI melanoma
43.6 µM: SK-MEL-2 melanoma
65.1 µM: SF-539 CNS
57.4 µM: OVCAR-8 ovarian
96.6 µM: HOP-18 NSCLC
75.1 µM: SR leukemia
41.3 µM: NCI-H522 lung
51.6 µM: SNB-75 CNS
65.2 µM: CAKI-1 renal
> 100 µM: DLD-1 colon | K-562 leukemia | OVCAR-4 ovarian | SF-268 CNS | SN12C renal | SNB-78 CNS | SW-620 colon | TK-10 renal
44.2 µM: HCT-116 colon
58.2 µM: LXFL 529 NSCLC
84.3 µM: KM20L2 colon
61.8 µM: M19-MEL melanoma | OVCAR-5 ovarian
44.3 µM: UO-31 renal
92.9 µM: EKVX NSCLC
36.5 µM: CCRF-CEM leukemia
49.9 µM: HOP-92 NSCLC
44.1 µM: HL-60(TB) leukemia
72.8 µM: SK-OV-3 ovarian
56.5 µM: RXF 393 renal
36.6 µM: 786-0 renal
53.5 µM: UACC-257 melanoma
64.7 µM: MALME-3M melanoma
64.3 µM: HT29 colon
43.3 µM: M14 melanoma
83.5 µM: ACHN renal

COc1ccc(/C=N/NC(=O)NCCNCCO)cc1
> 100 µM: 786-0 renal | A498 renal | A549 NSCLC | ACHN renal | CAKI-1 renal | CCRF-CEM leukemia | COLO 205 colon | DLD-1 colon | DMS 114 small cell lung | DMS 273 small cell lung | HCT-116 colon | HCT-15 colon | HL-60(TB) leukemia | HOP-18 NSCLC | HOP-62 NSCLC | HOP-92 NSCLC | HT29 colon | IGROV1 ovarian | K-562 leukemia | KM12 colon | KM20L2 colon | LOX IMVI melanoma | LXFL 529 NSCLC | M14 melanoma | M19-MEL melanoma | MALME-3M melanoma | MOLT-4 leukemia | NCI-H226 lung | NCI-H23 lung | NCI-H460 lung | NCI-H522 lung | OVCAR-3 ovarian | OVCAR-4 ovarian | OVCAR-5 ovarian | OVCAR-8 ovarian | RPMI-8226 leukemia | RXF 393 renal | SF-268 CNS | SF-295 CNS | SF-539 CNS | SK-MEL-2 melanoma | SK-MEL-28 melanoma | SK-MEL-5 melanoma | SK-OV-3 ovarian | SN12C renal | SNB-75 CNS | SNB-78 CNS | SR leukemia | SW-620 colon | TK-10 renal | U251 CNS | UACC-257 melanoma | UACC-62 melanoma | UO-31 renal

CC(C)(C)c1cc([Si](C)(C)C)c(C#N)c([Si](C)(C)C)c1
44.2 µM: HL-60(TB) leukemia
85.5 µM: SR leukemia
> 100 µM: 786-0 renal | A498 renal | A549 NSCLC | ACHN renal | CAKI-1 renal | CCRF-CEM leukemia | COLO 205 colon | DLD-1 colon | DMS 114 small cell lung | DMS 273 small cell lung | EKVX NSCLC | HCC-2998 colon | HCT-116 colon | HCT-15 colon | HOP-18 NSCLC | HOP-62 NSCLC | HOP-92 NSCLC | HT29 colon | IGROV1 ovarian | K-562 leukemia | KM12 colon | KM20L2 colon | LOX IMVI melanoma | LXFL 529 NSCLC | M14 melanoma | M19-MEL melanoma | MALME-3M melanoma | MOLT-4 leukemia | NCI-H226 lung | NCI-H23 lung | NCI-H460 lung | NCI-H522 lung | OVCAR-3 ovarian | OVCAR-4 ovarian | OVCAR-5 ovarian | OVCAR-8 ovarian | RXF 393 renal | SF-268 CNS | SF-295 CNS | SF-539 CNS | SK-MEL-2 melanoma | SK-MEL-28 melanoma | SK-OV-3 ovarian | SN12C renal | SNB-19 CNS | SNB-75 CNS | SNB-78 CNS | SW-620 colon | TK-10 renal | U251 CNS | UACC-257 melanoma | UACC-62 melanoma | UO-31 renal
67 µM: XF 498 CNS

From PubChem BioAssay (NCI)
